Laboratory results from PubChem BioAssay AID1259411 (Chemical Carcinogenesis Research Information System (CCRIS), 2018).
Active and inactive are the calls of the source. No rule for the calls is given here.

System: rodent carcinogenicity bioassays, tumor incidence
Assay: CCRIS carcinogenicity studies
Description: The CCRIS database contains chemical records with carcinogenicity, mutagenicity, tumor promotion, and tumor inhibition test results. It was developed by the National Cancer Institute (NCI). Data are derived from studies cited in primary journals, current awareness tools, NCI reports, and other sources. Test results have been reviewed by experts in carcinogenesis and mutagenesis.
CCRIS provides historical information from the years 1985 - 2011. It is no longer updated.
This is an archive assay for CCRIS carcinogenicity studies.

COc1ccc(OC(=O)N(CC(=O)O)Cc2ccc(OCCc3nc(-c4ccccc4)oc3C)cc2)cc1
carcinogen call (Species: Mouse, Strain/Sex: Crl:CD-1 (ICR)BR/Female (60/group), Route: Oral, Dose: 0, 1, 5, 20 mg/kg (initial group) or 0, 40 mg/kg (supplemental group) by gavage daily for up to 105 wks, vehicle cont, Dose: 0, 1, 5, 20 mg/kg (initial group) or 0, 40 mg/kg (supplemental group) by gavage daily for up to 105 wks, vehicle cont): inactive; negative (slight increases in hemangiosarcoma (multiple organs) and mammary glan
carcinogen call (Species: Mouse, Strain/Sex: Crl:CD-1 (ICR)BR/Male (60/group), Route: Oral, Dose: 0, 1, 5, 20 mg/kg (initial group) or 0, 40 mg/kg (supplemental group) by gavage daily for up to 105 wks, vehicle cont, Dose: 0, 1, 5, 20 mg/kg (initial group) or 0, 40 mg/kg (supplemental group) by gavage daily for up to 105 wks, vehicle cont, Tumor Site: Type of Lesion: GALLBLADDER: adenoma (1/60 at 20 mg/kg, 2/60 at 40 mg/kg), not significant): inactive; negative (although statistical significance was not obtained, the authors consid
carcinogen call (Species: Rat, Strain/Sex: Hsd:Sprague Dawley SD/Female (65/group), Route: Oral, Dose: 0, 1, 5, 30, 50 mg/kg by gavage daily for up to 105 wks, vehicle controls administered alkaline PEG-400, Dose: 0, 1, 5, 30, 50 mg/kg by gavage daily for up to 105 wks, vehicle controls administered alkaline PEG-400, Tumor Site: Type of Lesion: SUBCUTANEOUS TISSUE: lipoma (50 mg/kg only). UTERUS: Squamous cell carcinoma, adenoma and carcinoma, and squamous cell p, Tumor Site: Type of Lesion: SUBCUTANEOUS TISSUE: lipoma (50 mg/kg only). UTERUS: Squamous cell carcinoma, adenoma and carcinoma, and squamous cell p): active; positive (weak response)
carcinogen call (Species: Rat, Strain/Sex: Hsd:Sprague Dawley SD/Male (65/group), Route: Oral, Dose: 0, 1, 5, 30, 50 mg/kg by gavage daily for up to 105 wks, vehicle controls administered alkaline PEG-400, Dose: 0, 1, 5, 30, 50 mg/kg by gavage daily for up to 105 wks, vehicle controls administered alkaline PEG-400, Tumor Site: Type of Lesion: URINARY BLADDER: transitional cell carcinoma and papilloma at 5, 30, and 50 mg/kg associated with increased urinary soli): active; positive, muraglitazar reported to be a peroxisome proliferator-activated recept

CC1(C)S[C@@H]2[C@H](NC(=O)[C@H](N)c3ccccc3)C(=O)N2[C@H]1C(=O)O
carcinogen call (Species: MOUSE, Strain/Sex: B6C3F1/FEMALE, Route: GAVAGE, Dose: 0, 1500, 3000 MG/KG IN CORN OIL 5 D/WK FOR 103-104 WK (STUDY DURATION: 106 WK), Dose: 0, 1500, 3000 MG/KG IN CORN OIL 5 D/WK FOR 103-104 WK (STUDY DURATION: 106 WK)): inactive; negative
carcinogen call (Species: MOUSE, Strain/Sex: B6C3F1/FEMALE, Route: GAVAGE, Dose: 0, 1500, 3000 MG/KG IN CORN OIL 5 D/WK FOR 103 WK, Dose: 0, 1500, 3000 MG/KG IN CORN OIL 5 D/WK FOR 103 WK): inactive; negative
carcinogen call (Species: MOUSE, Strain/Sex: B6C3F1/MALE, Route: GAVAGE, Dose: 0, 1500, 3000 MG/KG IN CORN OIL 5 D/WK FOR 103-104 WK (STUDY DURATION: 106 WK), Dose: 0, 1500, 3000 MG/KG IN CORN OIL 5 D/WK FOR 103-104 WK (STUDY DURATION: 106 WK)): inactive; negative
carcinogen call (Species: MOUSE, Strain/Sex: B6C3F1/MALE, Route: GAVAGE, Dose: 0, 1500, 3000 MG/KG IN CORN OIL 5 D/WK FOR 103 WK, Dose: 0, 1500, 3000 MG/KG IN CORN OIL 5 D/WK FOR 103 WK): inactive; negative
carcinogen call (Species: RAT, Strain/Sex: F344/FEMALE, Route: GAVAGE, Dose: 0, 750, 1500 MG/KG IN CORN OIL 5 D/WK FOR 103-104 WK (STUDY DURATION: 106 WK), Dose: 0, 750, 1500 MG/KG IN CORN OIL 5 D/WK FOR 103-104 WK (STUDY DURATION: 106 WK)): inactive; negative
carcinogen call (Species: RAT, Strain/Sex: F344/FEMALE, Route: GAVAGE, Dose: 0, 750, 1500 MG/KG IN CORN OIL 5 D/WK FOR 103 WK, Dose: 0, 750, 1500 MG/KG IN CORN OIL 5 D/WK FOR 103 WK): inactive; negative
carcinogen call (Species: RAT, Strain/Sex: F344/MALE, Route: GAVAGE, Dose: 0, 750, 1500 MG/KG IN CORN OIL 5 D/WK FOR 103 WK (STUDY DURATION: 105 WK), Dose: 0, 750, 1500 MG/KG IN CORN OIL 5 D/WK FOR 103 WK (STUDY DURATION: 105 WK), Tumor Site: Type of Lesion: ADRENAL MEDULLA: PHEOCHROMOCYTOMAS, HEMATOPOIETIC SYSTEM: MONONUCLEAR CELL LEUKEMIA): equivocal

CC(=O)Nc1ccc(/C=C/c2ccccc2)cc1
carcinogen call (Species: RAT, Strain/Sex: HOLTZMAN/MALE, Route: ORAL, Dose: 0, 0.0046% IN DIET FOR WK 0-13 (STUDY DURATION: 40 WK), Tumor Site: Type of Lesion: EAR DUCT GLAND: CARCINOMA): active; positive

O=CNNc1nc(-c2ccc([N+](=O)[O-])o2)cs1
carcinogen call (Species: HAMSTER, Route: ORAL, Tumor Site: Type of Lesion: FORESTOMACH, URINARY BLADDER): active; positive
carcinogen call (Species: MOUSE, Route: ORAL, Tumor Site: Type of Lesion: FORESTOMACH, HEMATOPOIETIC SYSTEM (LEUKEMIA), LUNG, STOMACH, Tumor Site: Type of Lesion: FORESTOMACH, HEMATOPOIETIC SYSTEM (LEUKEMIA), LUNG, STOMACH): active; positive
carcinogen call (Species: RAT, Route: ORAL, Tumor Site: Type of Lesion: HEMATOPOIETIC SYSTEM (LEUKEMIA), KIDNEY, LIVER, MAMMARY GLAND, Tumor Site: Type of Lesion: HEMATOPOIETIC SYSTEM (LEUKEMIA), KIDNEY, LIVER, MAMMARY GLAND): active; positive

COc1ccc(CN(CCN(C)C)c2ccccn2)cc1
carcinogen call (Species: MOUSE, Strain/Sex: B6C3F1/FEMALE, Route: ORAL, Dose: 0, 150, 750, 1500 PPM IN DIET FOR 103 WK (STUDY DURATION: 103 WK), Dose: 0, 150, 750, 1500 PPM IN DIET FOR 103 WK (STUDY DURATION: 103 WK)): inactive; negative
carcinogen call (Species: MOUSE, Strain/Sex: B6C3F1/MALE, Route: ORAL, Dose: 0, 150, 750, 1500 PPM IN DIET FOR 103 WK (STUDY DURATION: 104 WK), Dose: 0, 150, 750, 1500 PPM IN DIET FOR 103 WK (STUDY DURATION: 104 WK)): inactive; negative
carcinogen call (Species: RAT, Strain/Sex: F344/FEMALE, Route: ORAL, Dose: 0, 300, 1500, 3000 PPM IN DIET FOR 2 YR (STUDY DURATION: 2 YR), Dose: 0, 300, 1500, 3000 PPM IN DIET FOR 2 YR (STUDY DURATION: 2 YR)): inactive; negative
carcinogen call (Species: RAT, Strain/Sex: F344/FEMALE, Route: ORAL, Dose: 0, 2000 PPM IN DIET (TOTAL DOSE: 120 G/KG) FOR 110 WK (STUDY DURATION: 133 WK)): inactive; negative
carcinogen call (Species: RAT, Strain/Sex: F344/FEMALE, Route: ORAL, Dose: 0, 2000 PPM IN DRINKING WATER (0.2%) 5 D/WK FOR 110 WK (TOTAL DOSE: 88 G/KG) (STUDY DURATION: 133 WK)): inactive; negative
carcinogen call (Species: RAT, Strain/Sex: F344/MALE, Route: ORAL, Dose: 0, 300, 1500, 3000 PPM IN DIET FOR 2 YR (STUDY DURATION: 2 YR), Dose: 0, 300, 1500, 3000 PPM IN DIET FOR 2 YR (STUDY DURATION: 2 YR)): inactive; negative
carcinogen call (Species: RAT, Strain/Sex: F344/MALE, Route: ORAL, Dose: 0, 2000 PPM (0.2%) IN DRINKING WATER 5 D/WK FOR 110 WK (TOTAL DOSE: 55 G/KG) (STUDY DURATION: 133 WK)): inactive; negative
carcinogen call (Species: RAT, Strain/Sex: F344/MALE, Route: ORAL, Dose: O, 2000 PPM IN DIET (TOTAL DOSE: 110 G/KG) FOR 110 WK (STUDY DURATION: 133 WK)): inactive; negative
carcinogen call (Species: RAT, Strain/Sex: SPRAGUE-DAWLEY/FEMALE, Route: ORAL, Dose: 0, 500, 1000 PPM IN DRINKING WATER 5D/WK FOR LIFE (STUDY DURATION: 549-745 D), Dose: 0, 500, 1000 PPM IN DRINKING WATER 5D/WK FOR LIFE (STUDY DURATION: 549-745 D)): inactive; negative
carcinogen call (Species: RAT, Strain/Sex: SPRAGUE-DAWLEY/MALE, Route: ORAL, Dose: 0, 500, 1000 PPM IN DRINKING WATER 5D/WK FOR LIFE (STUDY DURATION: 496-611 D), Dose: 0, 500, 1000 PPM IN DRINKING WATER 5D/WK FOR LIFE (STUDY DURATION: 496-611 D)): inactive; negative

CCCCOC(=O)[C@@H](C)Oc1ccc(Oc2ccc(C#N)cc2F)cc1
carcinogen call (Species: Mouse, Strain/Sex: ICR (Crj:CD-1)/(Male (52/group), Route: Oral, Dose: 0, 3, 10, 100 ppm (0; 0.31; 0.99; 10.1 mg/kg/day) of 97.1% pure cyhalofop-butyl in diet for 78 wk, Dose: 0, 3, 10, 100 ppm (0; 0.31; 0.99; 10.1 mg/kg/day) of 97.1% pure cyhalofop-butyl in diet for 78 wk): inactive; negative
carcinogen call (Species: Mouse, Strain/Sex: ICR (Crj:CD-1)/Female (52/group), Route: Oral, Dose: 0, 3, 10, 100 ppm (0; 0.29; 0.99; 10.3 mg/kg/day) of 97.1% pure cyhalofop-butyl in diet for 78 wk, Dose: 0, 3, 10, 100 ppm (0; 0.29; 0.99; 10.3 mg/kg/day) of 97.1% pure cyhalofop-butyl in diet for 78 wk): inactive; negative
